Data set [1] concerns scleritis. The data set can be described thus: Patients with scleritis (Example 3). The format is in vivo, human. The note with it: two patients; 10 mg.
For data set [2], the system named is moderate thyroid eye disease. The data set can be described thus: Patients with moderate thyroid eye disease (Example 5). The format is in vivo, human. The following applies: 3 patients; 10 mg. On the procedure:
The invention was used in 3 patients with moderate thyroid eye disease. The patients were controlled with 10 mg of prednisolone or with 7.5 g to 10 g of EPA and DHA and having a AA/EPA ratio between 1 to 1.5.

As to `C[C@]12C=CC(=O)C=C1CC[C@@H]1[C@@H]2[C@@H](O)C[C@@]2(C)[C@H]1CC[C@]2(O)C(=O)CO` [prednisolone], in data set [1], the control of scleritis entry is listed as “controlled” and the side effects entry is reported as “had to stop due to the side effects”. Besides, the “control of thyroid eye disease” value in data set [2] was “controlled”.

(Values after US10905671B2, “Method of using omega 3 fatty acids to treat diseases which involve damage to the nervous system” (priority 2013, dated 2021).)
